One assay has as its target Rho-A (Homo sapiens (Human), UniProt P61586). As to the kind of experiment: Rho inhibition assay (labeled GTP). As to conditions: read-out: Rho-A % Inh. The format is binding.
A further assay has as its target Rac-1 (Homo sapiens (Human), UniProt P63000). As to the kind of experiment: Rac inhibition assay (labeled GTP). It is filed as binding. The settings on record: read-out: Rac-1 % Inh.
Another assay addresses KRas G12D mutant protein (Homo sapiens (Human), UniProt P01116, G12D). Kind of assay: Ras GTP binding domain inhibition assay (labeled GTP). As to conditions: at 20 μM; read-out: KRas G12D % Inh. As to the method:
The following method was developed as specific assay for KRas G12D mutant protein.
Buffer-I: • 50 mM Tris, pH 7.5 • 150 mM NaCl (optional) • 1 mM MgCl2 • 1 mM DTT. • KRas G12D mutant protein was expressed as a His-tagged protein. Purified His-KRas G12D protein was diluted in buffer-I to a final concentration of 3-10 μg/ml. • 200 μl of the diluted His-KRas G12D protein was added to a nickel coated 96 well plate and incubated overnight at 4° C. • The next day, wells were washed 3× in 200 μl of Buffer-I. • Then 200 μl of Buffer-I were added to each well in the presence of 1% DMSO. • Tested compounds were added to the protein-coated wells at a concentration of 20 μM, and incubated for 3 hours at room temperature. While performing IC50 measurements a serial dilution of all tested concentrations was prepared.
Then 22 μl of Cy3-GTP or Cy5-GTP was added to each well. The labeled GTP was incubated for 45 min. at room temperature. • Following GTP incubation, wells were washed 3× in Buffer-I, and 200 μl of Buffer-I were added to each well. • Following washes, the amount of bound labeled-GTP was measured with an Eppendorf AF2200 plate reader.

Sequence of Rho-A (P61586 whole entry): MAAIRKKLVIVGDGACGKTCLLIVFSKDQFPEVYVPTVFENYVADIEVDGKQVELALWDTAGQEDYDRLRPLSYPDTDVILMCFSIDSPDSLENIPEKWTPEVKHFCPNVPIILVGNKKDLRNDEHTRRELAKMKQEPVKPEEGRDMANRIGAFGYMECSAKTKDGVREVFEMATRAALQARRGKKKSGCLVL
Sequence of KRas G12D mutant protein (P01116-2 other isoform, or with tags, fused parts or gaps G12D): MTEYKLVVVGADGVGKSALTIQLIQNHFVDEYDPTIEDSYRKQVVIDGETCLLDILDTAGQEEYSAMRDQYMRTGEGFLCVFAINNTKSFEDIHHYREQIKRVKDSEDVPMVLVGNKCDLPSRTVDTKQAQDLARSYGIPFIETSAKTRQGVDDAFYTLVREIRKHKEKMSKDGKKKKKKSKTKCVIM

As for `Cn1ccnc1-c1nc(NCCOC(F)(F)F)c2c(-c3ccccc3)c(-c3ccccc3)sc2n1` [drawing 3886], the inhibition at 20 µM at Rho-A, on Rac-1 and on KRas G12D mutant protein was 25 to 50% in each case.
`Cc1sc2c(O)nc(-c3nccn3C)nc2c1-c1ccc(F)cc1F` [drawing 3939]: the inhibition at 20 µM at Rho-A, at Rac-1 and on KRas G12D mutant protein was 1 to 25% throughout.
On to `COc1ccc(-c2c(C)sc3c(O)nc(-c4nccn4C)nc23)cn1` [drawing 3919], for which the inhibition at 20 µM at Rho-A is 0%; at Rac-1 it was 1 to 25%; on KRas G12D mutant protein, 1 to 25%.
Consider `CC(C)COc1ccc(-c2csc3c(O)nc(-c4cn(C)cn4)nc23)cn1` [drawing 3923], for which the figures for the inhibition at 20 µM on Rho-A, at Rac-1 and at KRas G12D mutant protein were 25 to 50%, 25 to 50% and 1 to 25%, respectively.
On to `COCCNc1nc(-c2cccc(N)n2)nc2sc(-c3ccccc3)c(-c3ccccc3)c12` [drawing 3909], for which the inhibition at 20 µM on Rho-A, at Rac-1 and at KRas G12D mutant protein was 0% in each case.
Take `Oc1nc(-c2ccncn2)nc2c(-c3cccc(C(F)(F)F)c3)csc12` [drawing 3925]: the inhibition at 20 µM at Rho-A, at Rac-1 and on KRas G12D mutant protein was 1 to 25% in each case.
Take `COCCNc1nc(-c2cn(C)cn2)nc2sc(-c3ccccc3)c(-c3ccccc3)c12` [drawing 3901]: the inhibition at 20 µM on Rho-A lay in the range of 51 to 75%; on Rac-1, 51 to 75%; at KRas G12D mutant protein, 25 to 50%.
As to `Cn1ccnc1-c1nc(O)c2scc(-c3ccc(C(C)(C)C)cc3)c2n1` [drawing 3937], the inhibition at 20 µM on Rho-A fell in the range of 25 to 50%; on Rac-1 it was 25 to 50%; on KRas G12D mutant protein, 1 to 25%.
Regarding `COCCNc1nc(-c2nccn2C)nc2sc(-c3ccccc3)c(-c3ccccc3Cl)c12` [drawing 3898], the inhibition at 20 µM at Rho-A, at Rac-1 and at KRas G12D mutant protein was 25 to 50% in each case.
For the compound `COCCNc1nc(-c2ccccn2)nc2sc(-c3ccccc3)c(-c3ccccn3)c12` [drawing 3938], the inhibition at 20 µM at Rho-A was 25 to 50%; on Rac-1 it was 1 to 25%; on KRas G12D mutant protein, 1 to 25%.
For `COCCNc1nc(-c2nccn2C)nc2sc(C)c(-c3ccccc3)c12` [drawing 3902], the inhibition at 20 µM on Rho-A, at Rac-1 and on KRas G12D mutant protein was 51 to 75% throughout.
In the case of `CC(O)CNc1nc(-c2nccn2C)nc2sc(-c3ccccc3)c(-c3ccccc3)c12` (stereo not drawn) [drawing 3887], the inhibition at 20 µM was 25 to 50% on Rho-A, 25 to 50% at Rac-1 and 1 to 25% at KRas G12D mutant protein.
For `Cc1sc2c(O)nc(-c3nccn3C)nc2c1-c1ccccc1Cl` [drawing 3920], the results for the inhibition at 20 µM at Rho-A, at Rac-1 and on KRas G12D mutant protein were 51 to 75%, 51 to 75% and 25 to 50%, respectively.
In the case of `COC(C)(C)c1ccc(-c2csc3c(O)nc(-c4nccn4C)nc23)cc1` [drawing 3936], the inhibition at 20 µM was 51 to 75% on Rho-A, 25 to 50% at Rac-1 and 25 to 50% on KRas G12D mutant protein.
On to `CCOCCNc1nc(-c2nccn2C)nc2sc(-c3ccccc3)c(-c3ccccc3)c12` [drawing 3893], for which the inhibition at 20 µM at Rho-A, at Rac-1 and on KRas G12D mutant protein was 51 to 75% throughout.
As to `COCCNc1nc(-c2nccn2C)nc2sc(-c3ccncc3)c(-c3ccccc3)c12` [drawing 3900], the inhibition at 20 µM at Rho-A, on Rac-1 and at KRas G12D mutant protein was 51 to 75% each time.
As to `COCCNc1nc(-c2nccn2C)nc2sc(-c3cccc(OC)c3)c(-c3ccccc3)c12` [drawing 3904], the inhibition at 20 µM on Rho-A lay in the range of 51 to 75%; on Rac-1, 1 to 25%; on KRas G12D mutant protein, 25 to 50%.
Turning to `Cc1sc2c(O)nc(-c3nccn3C)nc2c1-c1ccc(OC(C)C)c(F)c1` [drawing 3928], the inhibition at 20 µM was 25 to 50% on Rho-A, 51 to 75% at Rac-1 and 51 to 75% on KRas G12D mutant protein.
`CC(C)COc1ccc(-c2csc3c(O)nc(-c4nccn4C)nc23)cn1` [drawing 3930]: the inhibition at 20 µM at Rho-A fell in the range of 51 to 75%; at Rac-1, 51 to 75%; at KRas G12D mutant protein, 76 to 100%.
With `CCOCCOc1nc(-c2nccn2C)nc2sc(-c3ccccc3)c(-c3ccccc3)c12` [drawing 3890], the inhibition at 20 µM fell in the range of 25 to 50% on Rho-A, 1 to 25% on Rac-1 and 1 to 25% at KRas G12D mutant protein.
For the compound `Cn1ccnc1-c1nc(O)c2sc(-c3ccccc3)c(-c3cccc(C(F)(F)F)c3)c2n1` [drawing 3910], the results for the inhibition at 20 µM at Rho-A, on Rac-1 and on KRas G12D mutant protein were 0%, 1 to 25% and 0%, respectively.
For the compound `Cn1ccnc1-c1nc(NCCCO)c2c(-c3ccccc3)c(-c3ccccc3)sc2n1` [drawing 3897], the inhibition at 20 µM on Rho-A, on Rac-1 and on KRas G12D mutant protein was 51 to 75% in each case.
As to `CCN(CC)CCOc1nc(-c2nccn2C)nc2sc(-c3ccccc3)c(-c3ccccc3)c12` [drawing 3891], the inhibition at 20 µM on Rho-A lay in the range of 1 to 25%; on Rac-1, 1 to 25%; on KRas G12D mutant protein, 25 to 50%.
For `Cn1ccnc1-c1nc(O)c2scc(-c3cccc(C(F)(F)F)c3)c2n1` [drawing 3916], the inhibition at 20 µM on Rho-A lay in the range of 25 to 50%; on Rac-1, 51 to 75%; at KRas G12D mutant protein, 25 to 50%.
With `CC(CO)Nc1nc(-c2nccn2C)nc2sc(-c3ccccc3)c(-c3ccccc3)c12` (stereo not drawn) [drawing 3896], the inhibition at 20 µM at Rho-A, on Rac-1 and at KRas G12D mutant protein was 1 to 25% each time.
Turning to `CC(C)Oc1ccc(-c2c(-c3ccccc3)sc3c(O)nc(-c4nccn4C)nc23)cc1F` [drawing 3929], the inhibition at 20 µM lay in the range of 25 to 50% at Rho-A, 51 to 75% at Rac-1 and 25 to 50% on KRas G12D mutant protein.
Turning to `COc1ccc(-c2c(-c3ccccc3)sc3c(O)nc(-c4nccn4C)nc23)cn1` [drawing 3911], the inhibition at 20 µM on Rho-A, at Rac-1 and at KRas G12D mutant protein was 1 to 25% each time.
Take `Cn1ccnc1-c1nc(O)c2sc(-c3ccccc3)c(-c3ccccc3Cl)c2n1` [drawing 3913]: the inhibition at 20 µM at Rho-A, at Rac-1 and at KRas G12D mutant protein was 51 to 75% throughout.
Consider `COC1CCN(c2nc(-c3nccn3C)nc3sc(-c4ccccc4)c(-c4ccccc4)c23)C1` (stereo not drawn) [drawing 3889], for which the inhibition at 20 µM at Rho-A was 0%; at Rac-1, 25 to 50%; at KRas G12D mutant protein, 51 to 75%.
Regarding `COCCNc1nc(-c2nccn2C)nc2sc(-c3ccccc3)c(-c3ccncc3)c12` [drawing 3914], the results for the inhibition at 20 µM at Rho-A, on Rac-1 and on KRas G12D mutant protein were 76 to 100%, 76 to 100% and 51 to 75%, respectively.
For the compound `Cn1ccnc1-c1nc(O)c2sc(-c3ccccc3)c(-c3ccccc3)c2n1` [drawing 3906], the values for the inhibition at 20 µM at Rho-A, on Rac-1 and at KRas G12D mutant protein were 1 to 25%, 0% and 0%, respectively.
`COCCN(C)c1nc(-c2nccn2C)nc2sc(-c3ccccc3)c(-c3ccccc3)c12` [drawing 3884]: the inhibition at 20 µM was 25 to 50% at Rho-A, 25 to 50% at Rac-1 and 51 to 75% on KRas G12D mutant protein.
For the compound `COCCNc1nc(-c2nccn2C)nc2sc(-c3ccccc3)c(-c3ccc(OC)cc3)c12` [drawing 3907], the inhibition at 20 µM on Rho-A fell in the range of 51 to 75%; on Rac-1, 51 to 75%; at KRas G12D mutant protein it was 25 to 50%.
Take `CC(C)Oc1ccc(-c2csc3c(O)nc(-c4nccn4C)nc23)cc1F` [drawing 3927]: the inhibition at 20 µM on Rho-A fell in the range of 25 to 50%; at Rac-1, 51 to 75%; on KRas G12D mutant protein, 25 to 50%.
As to `COc1nc(-c2ccccn2)nc(Oc2cccc(C(F)(F)F)c2)c1O` [drawing 3883], the values for the inhibition at 20 µM on Rho-A, at Rac-1 and at KRas G12D mutant protein were 1 to 25%, 76 to 100% and 51 to 75%, respectively.
The matching figures for `COCCNc1nc(-c2ccncn2)nc2sc(-c3ccccc3)c(-c3ccccc3)c12` [drawing 3892]: 1 to 25%, 1 to 25% and 0%.
The matching figures for `Cc1sc2c(O)nc(-c3nccn3C)nc2c1-c1ccc(OCC(C)C)nc1` [drawing 3918]: 1 to 25%, 25 to 50% and 1 to 25%.
The matching figures for `Cn1cnc(-c2nc(O)c3scc(-c4cccc(C(F)(F)F)c4)c3n2)c1` [drawing 3922]: 25 to 50%, 25 to 50% and 25 to 50%.
Take `CC(C)COc1ccc(-c2c(-c3ccccc3)sc3c(O)nc(-c4nccn4C)nc23)cn1` [drawing 3905]: the inhibition at 20 µM at Rho-A, on Rac-1 and on KRas G12D mutant protein was 51 to 75% each time.

The record behind these values is patent publication US10940139B2, “Compounds that interact with the Ras superfamily for the treatment of cancers, inflammatory diseases, rasopathies, and fibrotic disease” (Shy Therapeutics LLC, priority 2017, dated 2021).
